Like-named read-outs stand apart in the source and are kept apart here.
Tests used:
[1] = molecular target: T1, recombinant HIV 1 RT wild type BH10 (Human immunodeficiency virus type 1 group M subtype B, UniProt P03366); test: RT inhibition assay for dT analogues (Chain-termination reaction mixture); conditions: for fold increase of IC50: Recombinant RT control wild type RT (Table 4)
[2] = molecular target: T2, HIV RT recovered from patient plasma (Human immunodeficiency virus type 1, UniProt P03366); test: Susceptibility to AZT-TP and d4T-TP using plasma derived RTs (Chain-termination reaction mixture); conditions: 5 fg/well
Protocol: (§2) • 1) Label the 4.5 ml plastic tubes to be used. Place them in a Nalgene box. Add 1 ml of sample (e.g. EDTA plasma from HIV infected individuals) to each labelled tube. Add 100 μl of a 66 mM solution of 5,5′-dithiobis-(2-nitrobenzoic acid) in buffered water, vortex and incubate the samples for one hour at room temperature.
(§3) The activity of the free plasma enzymes is destroyed during this procedure while the enzymes contained within the virions remain intact. The virions can then be purified from 5,5′-dithiobis-(2-nitrobenzoic acid), enzyme activity blocking antibodies and other substances that may interfere with quantification of viral RT by several separation procedures. The protocol below is based on the use of Fractogel® EMD TMAE Hicap gel. • 2) Suspend the separation gel carefully and transfer 1500 μl gel slurry to each sample pretreatment tube. • 3) Incubate the samples with the gel slurry for 90 minutes at room temperature with the tubes lying down horizontally on an orbital shaker. • 4) Label the desired amount of 10 ml plastic mini columns to identify the samples being analyzed. Mount the columns in a column washing device i.e. a Supelco Visiprep solid phase extraction vacuum manifold. Transfer the contents in the binding tubes to their corresponding columns. Before transfer vortex the tube briefly to evenly distribute the gel. • 5) When all the columns are filled, apply the vacuum and suck the gels dry. Turn off the vacuum and start the washing by filling each column with 9 ml buffer A. When all columns have been filled, apply the vacuum and suck the gels dry. • 6) Repeat step 5 three more times, giving a total of four washes. Suck the gels dry after each wash. After sucking the gels dry after the fourth wash, turn off the vacuum and proceed to step 7. • The washing step removes unbound RT blocking antibodies and 5,5′-dithiobis-(2-nitrobenzoic acid) from the system. • 7) Add to all dry gels 9 ml of conditioning buffer (B). After one minute apply vacuum and suck the gels dry. • 8) Repeat step 7. Before turning off the vacuum check that all conditioning buffer (B) has been removed from all gels. • 9) Lift off the upper part of the column wash device. Mount the tube holder with the labelled tubes into a clean container. Refit the upper part of the device. Control that the small tubings from each column go down in their corresponding tubes. • 10) Add 600 μl lysis buffer (C) to each column. Let the buffer stand in the column for five minutes. Then apply the vacuum slowly and suck the gels dry. This will in each tube give approximately 600 μl of virus lysate from the connected gel.
(§4) The RT activity recovered in the lysates from step 10 are essentially free from RT blocking antibodies, drugs and cellular polymerase activity, and can be quantified with a sensitive RT activity assay, i.e. the Cavidi HS-kit Lenti RT, which is based on the method described by Ekstrand et al [7]. 25 μl lysate obtained according to the current protocol is sufficient for determination of the RT activity in the sample. The Remaining 575 μl sample should be frozen at −70° C. or below for later use in the drug sensitivity test.

[3] = molecular target: HIV RT recovered from patient plasma (UniProt P04585, K690N/V695H, species not given); test: as above; conditions: plasma RT of patient code 2098; 5 fg/well
[4] = molecular target: HIV RT recovered from patient plasma (UniProt P04585, M628L/E631D/D654N/A685G/V705I/Y768C/L797W/T802Y, species not given); test: as above; conditions: plasma RT of patient code 656 (resensitising 181C); 5 fg/well
[5] = molecular target: HIV RT recovered from patient plasma (UniProt P04585, T656N/L687I/K690N, species not given); test: as above; conditions: plasma RT of patient code 622; 5 fg/well
[6] = test system: HIV RT recovered from patient plasma; test: as above; conditions: compared to wild type control RT
Protocol: as §2, §3, §4

[7] = molecular target: HIV RT recovered from patient plasma (UniProt P04585, K657R/L797S, species not given); test: as above; conditions: plasma RT of patient code 1030 (K70R, L210S); 5 fg/well
[8] = test system: recombinant HIV 1 RT M41L/T69S-SS/L210W/R211K/L214F/T215Y; conditions: Recombinant RT control T69S→SS; compared to wild type control RT
Text: (§5) Regrettably an efficient phosphorolysis reaction is promptly reflected by a decrease in polymerization velocity and as a consequence also a decrease in detection sensitivity. Therfore this assay require more RT activity, compared to the corresponding assay for the NNRTIs.

[9] = molecular target: recombinant HIV 1 RT M41L/T69S-SS/L210W/R211K/L214F/T215Y (Human immunodeficiency virus type 1 group M subtype B, UniProt P04585, INS655SS/L797W/L801F/M628L/R798K/T656S/T802Y); test: biochemical
Text: as §5

[10] = molecular target: recombinant HIV 1 RT wild type HxB2 (Human immunodeficiency virus type 1 group M subtype B, UniProt P04585); test: RT inhibition assay for dT analogues (Chain-termination reaction mixture)
Text: as §5

[11] = molecular target: recombinant HIV 1 RT T215Y (Human immunodeficiency virus type 1 group M subtype B, UniProt P04585, T802Y); test: as above
Text: as §5

[12] = test system: HIV 1 virus with the corresponding RT modification; set-up: key: S = sensitive; L = Low level resistance (2–10 times increase in inhibitory dose); I = Intermediate resistance (10–100 times increase); H = High level resistance (>100 times increase); conditions: phenotype data from literature, cited from earlier work
[13] = test system: HIV 1 virus with the corresponding RT modification; set-up: key: RS = the mutations gives re-sensitation of resistant virus; S = sensitive; L = Low level resistance; I = Intermediate resistance; H = High level resistance; conditions: phenotype data from literature, cited from earlier work
[14] = test system: HIV 1 virus with the corresponding RT modification; set-up: key: S = sensitive; L = Low level resistance (2–10 times increase in inhibitory dose); I = Intermediate resistance (10–100 times increase); H = High level resistance (>100 times increase); conditions: dT analogues, phenotype data from literature, cited from earlier work
[15] = molecular target: recombinant HIV 1 RT L100I (Human immunodeficiency virus type 1 group M subtype B, UniProt P03366, L699I); test: RT inhibition assay for non-nucleoside inhibitors (modified HS Lenti RT assay, RT Reaction mixture); format: biochemical; conditions: 1.7 fg/well, 19 hours, read-out: IC50 of indicated inhibitor in RT assay
Text: (§1) As template for the mutations was used the pETRT expression vector, which was constructed from the BH10 isolate.

[16] = molecular target: recombinant HIV 1 RT L100I/K103N (Human immunodeficiency virus type 1 group M subtype B, UniProt P03366, K702N/L699I); test: as above; format: biochemical; conditions: 1.7 fg/well, 19 hours, read-out: IC50 of indicated inhibitor in RT assay
Text: as §1

[17] = molecular target: T1, recombinant HIV 1 RT wild type BH10; test: as above; format: biochemical; conditions: 1.7 fg/well, 19 hours, read-out: IC50 of indicated inhibitor in RT assay
Text: as §1

[18] = molecular target: recombinant HIV 1 RT K103N (Human immunodeficiency virus type 1 group M subtype B, UniProt P03366, K702N); test: as above; format: biochemical; conditions: 1.7 fg/well, 19 hours, read-out: IC50 of indicated inhibitor in RT assay
Text: as §1

[19] = molecular target: T2, HIV RT recovered from patient plasma; test: Susceptibility to NNRTIs using plasma derived RTs; format: biochemical, HIV-1; conditions: 1.7 fg/well
Text: Place them in a Nalgene box.
Suck the gels dry after each wash. […] Refit the upper part of the device.

[20] = molecular target: T3, recombinant HIV 1 RT wild type (Human immunodeficiency virus type 1 group M subtype B, UniProt P04585); test: Influence of the amount of RT used in the drug susceptibility tests (AZT-TP); format: biochemical
T3 construct: This variation was maximal for wild type RT; made in house

[21] = IC50, plasma RT of patient code 48
[22] = IC50, plasma RT of patient code 160
[23] = IC50, plasma RT of patient code 181
[24] = IC50, plasma RT of patient code 662
[25] = IC50, plasma RT of patient code 807
[26] = IC50, plasma RT of patient code 3507
[27] = virus with M41L/T69S-SS/L210W/R211K/L214F/T215Y

In the case of `Cc1cn([C@H]2C=C[C@@H](COP(=O)(O)OP(=O)(O)OP(=O)(O)O)O2)c(=O)[nH]c1=O` [d4T-TP, 2′,3′-didehydro-3′-deoxythymidine triphosphate], the IC50 [1] is reported as 33 nM, the “fold increase of IC50” value [1] is reported as 1.0 fold and the IC50 [2, 21] is reported as 85 nM. For the same compound, the IC50 [2, 22] was 43 nM, the IC50 [2, 23] was 49 nM and the IC50 [2, 24] was 65 nM. It also gave an IC50 [2, 25] of 70 nM, an IC50 [2, 26] of 20 nM and an IC50 [3] of 48 nM. For the same compound, the IC50 [4] was 170 nM, the IC50 [5] was 28 nM and the “fold increase of IC50” value ([6]; patient code 48) was 2.6 fold. The “fold increase of IC50” value ([6]; patient code 160) was 1.3 fold, the “fold increase of IC50” value ([6]; patient code 181) was 1.5 fold and the “fold increase of IC50” value ([6]; patient code 393) was 12.7 fold. For the same compound, the “fold increase of IC50” value ([6]; patient code 622) was 0.8 fold, the “fold increase of IC50” value ([6]; patient code 656) was 5.2 fold and the “fold increase of IC50” value ([6]; patient code 662) was 2.0 fold. The “fold increase of IC50” value ([6]; patient code 807) was 2.7 fold, the “fold increase of IC50” value ([6]; patient code 1030) was 33 fold and the “fold increase of IC50” value ([6]; patient code 1320) was 19.6 fold. For the same compound, the “fold increase of IC50” value ([6]; patient code 2098) was 1.5 fold, the “fold increase of IC50” value ([6]; patient code 3507) was 0.6 fold and the IC50 [7] was 1100 nM. For the same compound, the “fold increase of IC50” value [8] was 15 fold, the IC50 [9] was 490 nM and the IC50 [10] was 50 nM. For the same compound, the IC50 [11] was 150 nM.

In the case of `O=C1Nc2ccc(Cl)cc2C(C#CC2CC2)(C(F)(F)F)O1` (single isomer, unassigned; (-)) [Efavirienz, (−)6-chloro-4-cyclopropylethynyl-4-trifluoromethyl-1,4-dihydro-2H-3,1-benzoxazin-2-one], the “Sensitivity of the corresponding virus” value ([12]; virus with K103N) is listed as “H (H = High level resistance (>100 times increase))”, the “Sensitivity of the corresponding virus” value ([12]; virus with L100I/K103N) is listed as “H (H = High level resistance (>100 times increase))” and the “Sensitivity of the corresponding virus” value ([12]; virus with L100I) is listed as “I (I = Intermediate resistance (10–100 times increase))”. The “Sensitivity of the corresponding virus” value ([12]; wild type BH10, NNRTIs) was “S” and the “Sensitivity of the corresponding virus” value ([12]; wild type HxB2, NNRTIs) was “S”.

For `Cc1cn([C@H]2C[C@H](N=[N+]=[N-])[C@@H](CO)O2)c(=O)[nH]c1=O` [AZT], the “Sensitivity of the corrsponding virus” value [13, 27] is listed as “H”, the “Sensitivity of the corrsponding virus” value ([13]; virus with T215Y) is listed as “I” and the “Sensitivity of the corrsponding virus” value ([14]; wild type HXB2) is listed as “S”. The “Sensitivity of the corrsponding virus” value ([14]; wildtype BH 10) was “S”.

In the case of `Cc1cn([C@H]2C=C[C@@H](CO)O2)c(=O)[nH]c1=O` [d4T], the “Sensitivity of the corrsponding virus” value [13, 27] is listed as “H”, the “Sensitivity of the corrsponding virus” value ([13]; virus with T215Y) is listed as “L” and the “Sensitivity of the corrsponding virus” value ([14]; wild type HXB2) is listed as “S”. The “Sensitivity of the corrsponding virus” value ([14]; wildtype BH 10) was “S”.

`CC(C)Nc1cccnc1N1CCN(C(=O)c2cc3cc(NS(C)(=O)=O)ccc3[nH]2)CC1` [Delaviridine, 1-(5-methanesulphonamido-1H-indol-2-yl-carbonyl)-4-[3-(1-methylethyl-amino)pyridinyl]piperazine monomethane sulphonate] gave an IC50 [15] of 9500 nM, an IC50 [16] greater than 100000 nM and an IC50 [17] of 500 nM. It also gave an IC50 [18] of 3000 nM, an IC50 ([19]; IC50, plasma RT of patient code 1177) of 4540 nM and an IC50 ([19]; IC50, plasma RT of patient code 1412) of 3600 nM. It also gave an IC50 ([19]; IC50, plasma RT of patient code 1424) of 8210 nM, an IC50 ([19]; IC50, plasma RT of patient code 1572) of 9540 nM and an IC50 ([19]; IC50, plasma RT of patient code 1639) of 12700 nM. It also gave an IC50 ([19]; IC50, plasma RT of patient code 1885) of 8970 nM and an IC50 ([19]; plasma RT of patient code 3980 (V179T/A/I)) of 7510 nM.

In the case of `Cc1cn(C2CC(N=[N+]=[N-])C(COP(=O)(O)OP(=O)(O)OP(=O)(O)O)O2)c(=O)[nH]c1=O` (stereo not shown) [AZT-TP, 3′-azido-2′,3′-deoxythymidine triphosphate], the IC50 [1] is reported as 160 nM, the “fold increase of IC50” value [1] is reported as 1.0 fold and the IC50 ([20]; RT amount 2 fg/well) is reported as 130 nM. The IC50 ([20]; RT amount 162 fg/well) was 220 nM, the IC50 [2, 21] was 470 nM and the IC50 [2, 22] was 270 nM. It also gave an IC50 [2, 23] of 500 nM, an IC50 [2, 24] of 500 nM and an IC50 [2, 25] of 500 nM. It also gave an IC50 [2, 26] of 130 nM, an IC50 [3] of 350 nM and an IC50 [4] of 1250 nM. The IC50 [5] was 230 nM, the “fold increase of IC50” value ([6]; patient code 48) was 2.9 fold and the “fold increase of IC50” value ([6]; patient code 160) was 1.7 fold. For the same compound, the “fold increase of IC50” value ([6]; patient code 181) was 3.1 fold, the “fold increase of IC50” value ([6]; patient code 393) was 20 fold and the “fold increase of IC50” value ([6]; patient code 622) was 1.4 fold. The “fold increase of IC50” value ([6]; patient code 656) was 7.8 fold, the “fold increase of IC50” value ([6]; patient code 662) was 3.1 fold and the “fold increase of IC50” value ([6]; patient code 807) was 3.1 fold. For the same compound, the “fold increase of IC50” value ([6]; patient code 1030) was 20 fold, the “fold increase of IC50” value ([6]; patient code 1144) was 3.5 fold and the “fold increase of IC50” value ([6]; patient code 1320) was 8.3 fold. The “fold increase of IC50” value ([6]; patient code 2098) was 2.2 fold, the “fold increase of IC50” value ([6]; patient code 3507) was 0.8 fold and the IC50 [7] was 3200 nM. The “fold increase of IC50” value [8] was 25 fold, the IC50 [9] was 4000 nM and the IC50 [10] was 190 nM. The IC50 [11] was 690 nM.

For `Cc1ccnc2c1NC(=O)c1cccnc1N2C1CC1` [Nevirapin, 11-cyclopropyl-5,11-dihydro-4-methyl-6H-dipyrido[3,2-b:2′,3′-f][1,4]diazepin-6-one], the “Sensitivity of the corresponding virus” value ([12]; virus with K103N) is listed as “H (H = High level resistance (>100 times increase))”, the “Sensitivity of the corresponding virus” value ([12]; virus with L100I/K103N) is listed as “H (H = High level resistance (>100 times increase))” and the “Sensitivity of the corresponding virus” value ([12]; virus with L100I) is listed as “L (L = Low level resistance (2–10 times increase in inhibitory dose))”. For the same compound, the “Sensitivity of the corresponding virus” value ([12]; wild type BH10, NNRTIs) was “S” and the “Sensitivity of the corresponding virus” value ([12]; wild type HxB2, NNRTIs) was “S”.
